Several values for one entry are separate records, joined by “and”; a condition that tells them apart may be missing. Equal entries are not always repeated.
Test system: 922993-354-T-J3-PDC complex spheroids, viability, % test/control
Assay: Anticancer human tumor 922993-354-T-J3-PDC patient-derived endometrial carcinoma cell line growth inhibition [CLK]
Settings: for viability, T/C: stronger effect = lower value
Source text: A high-throughput screen of multi-cell type tumor spheroids was designed to identify active combinations of […] and targeted small molecules. Complex spheroids include a stromal component modeled by human endothelial cells (HUVEC) and fibroblasts modeled by human mesenchymal stem cells (MSCs). The concentration ranges selected for each drug and investigational agent were based upon clinically achievable concentrations if the clinical Cmax of the agent was known.
Compounds. The drugs and investigational agents: cirtuvivint (SM08502; NSC835563), CC-671 (NSC850746), vemurafenib (NSC761431), tapotoclax (NSC804041), sotorasib (NSC818433), adagrasib (NSC831453), MRTX-1133 (NSC836407), BAY2416964 (NSC825713), copanlisib (NSC816437), inavolisib (NSC800729), abemaciclib (NSC768073), osimertinib (NSC779217), entinostat (NSC756642), eltanexor (KPT-8602, NSC794443), venetoclax (NSC766270), ceralasertib (NSC777638), bortezomib (NSC756655), olaparib (NSC753686), talazoparib (NSC767125), alisertib (NSC759677), peposertib (NSC802822), gemcitabine (NSC613327), 5-fluorouracil (NSC19893), SN-38 (NSC673596), oxaliplatin (NSC266046), paclitaxel (NSC125973), and doxorubicin (NSC123127), were obtained from the National Cancer Institute (NCI) Developmental Therapeutics Program Chemical Repository. The FDA-approved anticancer drug set is available from the Developmental Therapeutics Program at https://dtp.cancer.gov/organization/dscb/obtaining/available plates.htm. […] The stock solutions were prepared in dimethyl sulfoxide (DMSO, Sigma-Aldrich, St. Louis, MO, cat. D2650), except for the platinum complexes which were prepared in saline (Quality Biological, Gaithersburg, MD, cat. 114-055-101), at 800-fold the tested concentration and stored at -70 degrees C prior to their use. All drugs and investigational agents were tested over a range starting from a high concentration at or near the clinical Cmax and decreasing in half-log increments. If the clinical Cmax for an agent had not been determined, the highest concentration tested was 10 microM.
Cell Culture. All cells were maintained in an incubator at 37 degrees C and 5% CO2 with 95% humidity. The PDC lines were cultured according to standard operating procedures established by the NCI PDMR. Briefly, all PDCs were thawed and cultured in Matrigel-coated flasks prepared with a working solution of 1X Ham's F-12 nutrient mix, without supplementation (Invitrogen, Waltham, MA, cat. 11765054), 100 U/mL penicillin-streptomycin (Invitrogen, cat. 15140122), and 2.5% Matrigel (Corning Inc., Corning, NY, cat. 354248) for the first three passages. The 947758-054-R-J2-PDC line was cultured in 6B/Colon 1A media, which includes advanced DMEM/F-12 (Thermo Fisher Scientific, cat. 12634028), 10 mM HEPES (Thermo Fisher Scientific, cat. 15630080), 1X GlutaMAX supplement (Thermo Fisher Scientific, cat. 35050061), 0.1 mg/mL primocin (InvivoGen, cat. ant-pm-2), 10% defined fetal bovine serum, heat inactivated (HyClone Laboratories Inc., cat. SH30070.03HI), 1.25 mM N-Acetyl-L-cysteine (Sigma-Aldrich, cat. A9165), 10 mM nicotinamide (Sigma-Aldrich, cat. N0636), 1X B-27 supplement (Thermo Fisher Scientific, cat. 17504044), 1X N-2 supplement (Thermo Fisher Scientific, cat. 17502048), and 10 microM Y-27632 dihydrochloride (Tocris Bioscience, cat. 1254). The 876862-298-R-J1-PDC was cultured in 6E media, which includes all 6B/Colon 1A media components plus 50% L-WRN conditioned media (ATCC, cat. CRL-3276), 50 ng/mL recombinant human EGF recombinant protein (hEGF; Thermo Fisher Scientific, cat. PHG0311), 10 ng/mL recombinant human fibroblast growth factor 10 (hGFG-10; PeproTech, cat. 100-26), 1 ng/mL recombinant human fibroblast growth factor 2 (hFGF-2; PeproTech, cat. 100-18B), and 1 µM prostaglandin E2 (PGE2; Tocris, cat. 2296). The 227483-062-R1-J1-PDC line was cultured in Panc media, containing all 6E components except hFGF-2, with the addition of 500 nM SB-431542 (Selleckchem, cat. S1067) and 10 nM gastrin (Tocris, cat. 3006). […]
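Note: spheroids exposed to the agents for 7 days before readout.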

| Structure (SMILES) | IC50 (curve of compound) | viability, T/C (compound 0.0316 µM) | viability, T/C (compound 0.1 µM) | viability, T/C (compound 0.316 µM) | viability, T/C (compound 1 µM) | viability, T/C (compound 3.16 µM) | viability, T/C (compound 10 µM) | other results |
| --- | --- | --- | --- | --- | --- | --- | --- | --- |
| CC(=O)O[C@H]1C(=O)[C@@]2(C)[C@H]([C@H](OC(=O)c3ccccc3)[C@]3(O)C[C@H](OC(=O)[C@H](O)[C@@H](NC(=O)c4ccccc4)c4ccccc4)C(C)=C1C3(C)C)[C@]1(OC(C)=O)CO[C@@H]1C[C@@H]2O | 3.86 µM and 6.98 µM | 105% and 92.5% | 79% and 115% | 84% and 85.9% | 95.6% and 88.3% | 52.7% and 71.6% | 37.1% and 40.2% | – |
| CC(C)CC(NC(=O)C(Cc1ccccc1)NC(=O)c1cnccn1)B(O)O (stereo not drawn) | 0.00631 µM and 0.00744 µM | – | – | – | – | – | – | viability, T/C (compound 0.000949 µM): 91.1% and 99.8%; viability, T/C (compound 0.003 µM): 85.1% and 72.4%; viability, T/C (compound 0.00949 µM): 30.7% and 48.4%; viability, T/C (compound 0.03 µM): 2.06% and 11.1%; viability, T/C (compound 0.0949 µM): 0.41% and 2.23%; viability, T/C (compound 0.3 µM): 0.17% and 0.49% |
| CC(CO)NC(=O)c1cc(-c2ccc(Cl)cc2)nn(-c2cnn(C)c2)c1=O (stereo not drawn) | > 10 µM | 107% and 97.1% | 106% and 87.2% | 98% and 86% | 97.1% and 81.7% | 102% and 95.1% | 74.8% and 64.1% | – |
| CC(Nc1ccc2c(c1)OCCn1cc(N3C(=O)OCC3C(F)F)nc1-2)C(N)=O (stereo not drawn) | 1.79 µM and 3.33 µM | 115% and 99.3% | 107% and 93.8% | 84.6% and 77.5% | 73.1% and 70.7% | 28.4% and 49% | 22.1% and 34.3% | – |
| CCc1c2c(nc3ccc(O)cc13)-c1cc3c(c(=O)n1C2)COC(=O)[C@]3(O)CC | 0.00743 µM and 0.0161 µM | 12.8% and 21.2% | 13.1% and 16% | 17% and 25.4% | 22% and 27.1% | – | – | viability, T/C (compound 0.00316 µM): 84.6% and 97.6%; viability, T/C (compound 0.01 µM): 38% and 69.2% |
| CNC(=O)c1ccc(Nc2nc(OC3CCCC3)c3c(-c4ccc5nc(C)oc5c4)c[nH]c3n2)c(OC)c1 | – | 106% [middle of 12 runs] | 107% [middle of 12 runs] | – | 39.3% [middle of 12 runs] | 34.4% [middle of 12 runs] | 33.4% [middle of 12 runs] | IC50 (compound alone, run of 09/19/2023): 557 nM [middle of 12 runs] |
| Cn1ncnc1[C@H]1c2n[nH]c(=O)c3cc(F)cc(c23)N[C@@H]1c1ccc(F)cc1 | > 0.1 µM | 104% and 98.2% | 75.3% and 72.6% | – | – | – | – | viability, T/C (compound 0.000316 µM): 94.9% and 97.8%; viability, T/C (compound 0.001 µM): 80.7% and 87.4%; viability, T/C (compound 0.00316 µM): 104% and 100%; viability, T/C (compound 0.01 µM): 124% and 103% |
| NC(=O)C(=Cn1cnc(-c2cc(C(F)(F)F)cc(C(F)(F)F)c2)n1)c1cncnc1 | 0.187 µM and 1.17 µM | – | – | – | – | – | – | viability, T/C (compound 0.00949 µM): 99% and 121%; viability, T/C (compound 0.03 µM): 107% and 106%; viability, T/C (compound 0.0949 µM): 64.8% and 96.1%; viability, T/C (compound 0.3 µM): 47.6% and 68.7%; viability, T/C (compound 0.949 µM): 46.4% and 56.8%; viability, T/C (compound 3 µM): 24.8% and 32.5% |
| Nc1ccccc1NC(=O)c1ccc(CNC(=O)OCc2cccnc2)cc1 | > 10 µM | 105% and 111% | 71.8% and 85.9% | 95.8% and 95.2% | 71.8% and 81.7% | 64.9% and 70.1% | 53.4% and 55.2% | – |
| Nc1ccn(C2OC(CO)C(O)C2(F)F)c(=O)n1 (stereo not drawn) | < 0.0316 µM | 15.9% and 15.4% | 17.1% and 18.3% | 15.5% and 15.6% | 15.6% and 16.5% | 15.1% and 13.7% | 13.5% and 14.2% | – |
| O=C(c1cc(Cc2n[nH]c(=O)c3ccccc23)ccc1F)N1CCN(C(=O)C2CC2)CC1 | > 10 µM | 81.9% and 98.5% | 91.4% and 88.5% | 85.5% and 102% | 93% and 118% | 96.8% and 107% | 83.2% and 100% | – |
| O=c1[nH]cc(F)c(=O)[nH]1 | 2.51 µM and 5.11 µM | 102% and 101% | 95.8% and 97.9% | 86.8% and 93.4% | 104% and 115% | 38% and 60.7% | 26.7% and 35.1% | – |

Continued, in another order:

| IC50 (curve of compound) | Structure (SMILES) | viability, T/C (compound 0.0316 µM) | viability, T/C (compound 0.1 µM) | viability, T/C (compound 0.316 µM) | viability, T/C (compound 1 µM) | viability, T/C (compound 3.16 µM) | viability, T/C (compound 10 µM) | other results |
| --- | --- | --- | --- | --- | --- | --- | --- | --- |
| > 10 µM | C#Cc1c(F)ccc2cc(O)cc(-c3ncc4c(N5CC6CCC(C5)N6)nc(OCC56CCCN5CC(F)C6)nc4c3F)c12 (stereo not drawn) | 99.4% and 98.9% | 82% and 83% | 95.2% and 109% | 93% and 94% | 98.1% and 104% | 95.9% and 101% | – |
| 4.9 µM and 4.28 µM | C=C(F)C(=O)N1CCN(c2nc(OCC3CCCN3C)nc3c2CCN(c2cccc4cccc(Cl)c24)C3)CC1CC#N (stereo not drawn) | 96.9% and 91.5% | 97.8% and 100% | 93.3% and 104% | 91.2% and 92% | 79.4% and 67.9% | 2.9% and 0.21% | – |
| > 10 µM | C=CC(=O)N1CCN(c2nc(=O)n(-c3c(C)ccnc3C(C)C)c3nc(-c4c(O)cccc4F)c(F)cc23)C(C)C1 (stereo not drawn) | 101% and 104% | 94.5% and 105% | 104% and 92% | 105% and 99.2% | 92.5% and 111% | 93% and 93.6% | – |
| > 0.3 µM | C=CC(=O)Nc1cc(Nc2nccc(-c3cn(C)c4ccccc34)n2)c(OC)cc1N(C)CCN(C)C | – | – | – | – | – | – | viability, T/C (compound 0.000949 µM): 93.6% and 122%; viability, T/C (compound 0.003 µM): 92.5% and 98.6%; viability, T/C (compound 0.00949 µM): 60.9% and 98.1%; viability, T/C (compound 0.03 µM): 97.8% and 85.3%; viability, T/C (compound 0.0949 µM): 90.1% and 94.2%; viability, T/C (compound 0.3 µM): 72.3% and 86.4% |
| 7.31 µM and > 10 µM | CC1(C)CCC(CN2CCN(c3ccc(C(=O)NS(=O)(=O)c4ccc(NCC5CCOCC5)c([N+](=O)[O-])c4)c(Oc4cnc5[nH]ccc5c4)c3)CC2)=C(c2ccc(Cl)cc2)C1 | 96.7% and 84.1% | 90.2% and 99.4% | 110% and 101% | 123% and 95.5% | 85.6% and 121% | 36.7% and 82.9% | – |
| > 10 µM | CC1COCCN1c1cc(C2(S(C)(=N)=O)CC2)nc(-c2ccnc3[nH]ccc23)n1 (stereo not drawn) | 101% and 91.8% | 118% and 86.8% | 130% and 91.7% | 90.4% and 102% | 108% and 94.2% | 68.6% and 78.2% | – |
| > 10 µM | CCCS(=O)(=O)Nc1ccc(F)c(C(=O)c2c[nH]c3ncc(-c4ccc(Cl)cc4)cc23)c1F | 113% and 92.8% | 79.7% and 76.8% | 97.7% and 113% | 111% and 94.1% | 65.2% and 95.7% | 59% and 65.5% | – |
| > 1 µM | CCN1CCN(Cc2ccc(Nc3ncc(F)c(-c4cc(F)c5nc(C)n(C(C)C)c5c4)n3)nc2)CC1 | 94.2% and 84.1% | 99.8% and 93.6% | 72% and 73.3% | 59.6% and 50.1% | – | – | viability, T/C (compound 0.00316 µM): 94.4% and 96.9%; viability, T/C (compound 0.01 µM): 91.2% and 85.8% |
| 4.57 µM and 5.82 µM | COC1C=CCC(C)C(C)S(=O)(=O)NC(=O)c2ccc3c(c2)N(CC2CCC21)CC1(CCCc2cc(Cl)ccc21)CO3 (stereo not drawn) | 99.2% and 106% | 99.9% and 97.5% | 103% and 106% | 84.5% and 89.9% | 68.4% and 84% | 13.7% and 21.5% | – |
| 0.118 µM and 0.226 µM | COc1c(OCCCN2CCOCC2)ccc2c3n(c(=NC(=O)c4cnc(N)nc4)nc12)CCN3 | 75.1% and 91.2% | 54.6% and 68.8% | 30.3% and 40.4% | 9.62% and 15.9% | – | – | viability, T/C (compound 0.00316 µM): 109% and 111%; viability, T/C (compound 0.01 µM): 89.1% and 90.3% |

From PubChem BioAssay AID2060606 (Molecular Pharmacology Branch, DTP, NCI, 2025)
